Laboratory results from US8697705B2, “Isoindolinone derivatives” (Hoffmann-La Roche Inc., priority 2011, dated 2014).

Key:
C57BL/6J mice = assay: Glucokinase activator in vivo screen: blood glucose lowering after oral gavage in mice; settings: Mus musculus, C57B6 mice, read-out: % gluc lowering @ 2 H; for change in vivo at 25 mg/kg: vs. control at 2 hours post 25 mg/kg oral dose
Protocol: Glucokinase Activator In Vivo Screen Protocol in Lean Mice:
Lean C57BL/6J mice were orally dosed via gavage with Glucokinase (GK) activator following a two hour fasting period. Blood glucose determinations were made at various (e.g. 0, 1, 2, 4 and 8 hours post-oral gavage) times during the study.
C57Bl/6J mice were obtained from Jackson Laboratory (Bar Harbor, Me.) and were maintained in a light-dark cycle with lights on from 0600-1800 hr. For studies in lean mice, the mice were received at age ten weeks and given ad libitum access to control diet (LabDiet 5001 chow, PMI Nutrition, Brentwood, Mo.), and were at least age 11 weeks at the time of study. For studies in the DIO model, the mice were received at age five weeks and given ad libitum access to Bio-Sery F3282 High Fat Diet (Frenchtown, N.J.), and were at least age 16 weeks at the time of study. The experiments were conducted during the light phase of the light-dark cycle. Mice (n=6) are weighed and fasted for a two hour period prior to oral treatment. GK activators are formulated in Gelucire vehicle (Ethanol:Gelucire44/14:PEG400q.s. 4:66:30 v/w/v). For studies in lean mice, the mice were dosed orally with 5.0 μL per gram of body weight (i.e. 5 ml/kg×10.0 mg/ml formulation to equal a 50 mg/kg dose). For studies in DIO mice, the mice were dosed orally with 5.0 μL per gram of body weight (i.e. 5.0 ml/kg×5 mg/ml formulation to equal a 25 mg/kg dose). Immediately prior to dosing, a pre-dose (time zero) blood glucose reading was acquired by snipping off a small portion of the animal's tail and collecting 15 μL blood into a heparinized capillary tube for analysis. Following GK activator administration, additional blood glucose readings were taken at various time points post dose from the same tail wound. Results were interpreted by comparing the mean blood glucose values of vehicle treated mice with GK activator treated mice over the study period.
Table 2 below provides data for % glucose lowering of a representative number of compounds of the present invention vs. control at 2 hours post 25 or 50 mg/kg dose in C57B6 mice: […]

[1] = biological target: T1, Recombinant human liver GK1 (GST-GK) (Homo sapiens, UniProt P35557); assay: Glucokinase in vitro assay (G6PDH-coupled, NADH generation, OD340); format: biochemical; settings: 30° C., 5 mM D-glucose, 10% dimethylsulfoxide
T1 construct: made in house; host or cells: E. coli
T1 sequence (P35557 1-466 isoform P35557-2): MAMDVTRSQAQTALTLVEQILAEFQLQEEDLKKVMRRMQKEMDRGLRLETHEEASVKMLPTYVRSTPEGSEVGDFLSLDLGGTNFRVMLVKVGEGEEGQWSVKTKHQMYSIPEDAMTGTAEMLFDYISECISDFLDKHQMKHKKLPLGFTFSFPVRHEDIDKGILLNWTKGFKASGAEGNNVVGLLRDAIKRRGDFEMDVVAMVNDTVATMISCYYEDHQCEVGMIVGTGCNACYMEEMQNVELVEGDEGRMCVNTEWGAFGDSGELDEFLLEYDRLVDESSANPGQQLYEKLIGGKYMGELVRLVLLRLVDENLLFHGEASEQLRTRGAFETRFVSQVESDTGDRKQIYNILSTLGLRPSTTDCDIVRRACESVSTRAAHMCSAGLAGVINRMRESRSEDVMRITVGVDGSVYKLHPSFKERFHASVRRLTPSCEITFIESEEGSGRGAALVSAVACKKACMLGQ
Protocol: Glucokinase In Vitro Assay Protocol:
Glucokinase (GK) was assayed by coupling the production of glucose-6-phosphate to the generation of NADH with glucose-6-phosphate dehydrogenase (G6PDH, 0.75-1 kunits/mg; Boehringer Mannheim, Indianapolis, Ind.) from Leuconostoc mesenteroides as the coupling enzyme (Scheme 2).
Recombinant human liver GK1 was expressed in E. coli as a glutathione S-transferase fusion protein (GST-GK) and was purified by chromatography over a glutathione-Sepharose 4B affinity column using the procedure provided by the manufacturer (Amersham Pharmacia Biotech, Piscataway, N.J.).
The assay was conducted at 30° C. in a flat bottom 96-well tissue culture plate from Costar (Cambridge, Mass.) with a final incubation volume of 120 μL. The incubation reaction contained the following: 25 mM Hepes buffer (pH 7.1), 25 mM KCl, 5 mM D-glucose, 1 mM ATP, 1.8 mM NAD, 2 mM MgCl2, 1 μM sorbitol-6-phosphate, 1 mM dithiothreitol, test drug or 10% dimethylsulfoxide, ˜7 units/ml G6PDH, and GK (see below). All organic reagents were >98% pure and were from Boehringer Mannheim with the exceptions of D-glucose and Hepes which were from Sigma Chemical Co, St Louis, Mo. Test compounds were dissolved in dimethylsulfoxide and were added to the incubation reaction minus GST-GK in a volume of 12 μL to yield a final dimethylsulfoxide concentration of 10%. This mix was pre-incubated in the temperature controlled chamber of a SPECTRAmax 250 microplate spectrophotometer (Molecular Devices Corporation, Sunnyvale, Calif.) for 10 minutes to allow temperature equilibrium and then the reaction was started by the addition of 20 μL GST-GK.
After addition of enzyme, the increase in optical density (OD) at 340 nm was monitored spectrophotometrically to determine the rate of change (OD340 per min). The GK activity (OD340/min) in control wells (10% dimethylsulfoxide minus GK activators) was compared with the activity in wells containing test GK activators, and the concentration of activator that produced a 50% increase in the activity of GK, i.e., the SC1.5, was calculated.

Row | SC1.5 (concentration of activator that produced a 50% increase in the activity of GK) [1] | SMILES | change in vivo at 25 mg/kg (C57BL/6J mice) | change in vivo at 50 mg/kg (C57BL/6J mice; vs. control at 2 hours post 50 mg/kg oral dose)
1 | 0.032 µM | COC(C)(C)Cn1ccc(NC(=O)[C@H](CC2CCCC2)N2Cc3c(cccc3C(F)(F)F)C2=O)n1 [Example 7, (S)-3-Cyclopentyl-N-[1-(2-methoxy-2-methyl-propyl)-1H-pyrazol-3-yl]-2-(1-oxo-4-trifluoromethyl-1,3-dihydro-isoindol-2-yl)-propionamide] | -48.2% | 
2 | 0.328 µM | COCCn1ccc(NC(=O)[C@H](CC2CCCC2)N2Cc3c(cccc3C(F)(F)F)C2=O)n1 [Example 13, (S)-3-Cyclopentyl-N-[1-(2-methoxy-ethyl)-1H-pyrazol-3-yl]-2-(1-oxo-4-trifluoromethyl-1,3-dihydro-isoindol-2-yl)-propionamide] |  | -45.2%
3 | 0.176 µM | O=C(Nc1cnccn1)[C@H](CC1CCCC1)N1Cc2c(cccc2C(F)(F)F)C1=O [Example 15, (S)-3-Cyclopentyl-2-(1-oxo-4-trifluoromethyl-1,3-dihydro-isoindol-2-yl)-N-pyrazin-2-yl-propionamide] | -22.5% | 
4 | 0.179 µM | CC(C)OCCn1ccc(NC(=O)[C@H](CC2CCCC2)N2Cc3c(cccc3C(F)(F)F)C2=O)n1 [Example 17, (S)-3-Cyclopentyl-N-[1-(2-isopropoy-ethyl)-1H-pyrazol-3-yl]-2-(1-oxo-4-trifluoromethyl-1,3-dihydro-isoindol-2-yl)-propionamide] | -40.2% | 
5 | 0.962 µM | COCCn1ccc(NC(=O)[C@H](CC2CCCCC2)N2Cc3c(F)cccc3C2=O)n1 [Example 18, (S)-3-Cyclohexyl-2-(4-fluoro-1-oxo-1,3-dihydro-isoindol-2-yl)-N-[1-(2-methoxy-ethyl)-1H-pyrazol-3-yl]-propionamide] | -25.4% | 
6 | 0.255 µM | O=C(Nc1cnc([C@H](O)CO)cn1)[C@H](CC1CCCC1)N1Cc2c(cccc2C(F)(F)F)C1=O [Example 21, (S)-3-Cyclopentyl-N-[5-((S)-1,2-dihydroxy-ethyl)-pyrazin-2-yl]-2-(1-oxo-4-trifluoromethyl-1,3-dihydro-isoindol-2-yl)-propionamide] | -36.6% | 
